# Test results from patent publication US9199200B2, “Submerged membrane bioreactor system and biological methods for removing bisphenol compounds from municipal wastewater” (Centre de Recherche Industrielle de Québec (CRIQ), priority 2010, dated 2015).
# Legend:
# [1] = Sorption time course of BPA on activated and inactivated sludge in shake flasks; assay type: physicochemical; conditions: average over the first 30 min; initial 5.0 or 10 mg/L; 15 g TSS/L
# Method: To elucidate the plausible mechanisms of the biological removal of the bisphenol compounds, the removal of BPA was tested (adsorption on the biomass versus biological oxidation), and additional experiments are carried out in Erlenmeyer shake flasks containing either activated sludge or inactivated sludge in the presence of BPA. The sludge used for the tests is withdrawn from the SMBR unit. Prior to BPA addition in activated sludge sample, sludge is initially centrifuged at 8000 rpm at 4° C. for 10 min and softly washed. The inactivated sludge is prepared by subjecting sludge samples to a sterilization by adding 1.0 mL HgSO4 (20 g/L) to 200 mL of sludge. Then, the sterilized and centrifuged sample sludge is placed in conical flasks and shaken at 150 rpm at 22±2° C. for 2 h, and then centrifuged at 8000 rpm at 4° C. for 10 min. Different concentrations of BPA (0.45 to 18.2 mg/L) are added in the same mass of sludge (3.0 g of sludge diluted to 200 mL with milli-Q water). […] The flasks are shaken at 150 rpm at 22±2° C., pH=7±0.5 for 24 h and samples are taken in regular time intervals, and the amount of BPA adsorbed is determined by measuring the residual BPA concentrations in solution The same assay is carried out using inactivated sludge. […]
# [2] = cited from earlier work
# [3] = system: aquatic ecosystems; conditions: Oehlmann et al.; cited from earlier work
# [4] = system: biomass (activated sludge) of the SMBR; assay: COD removal in submerged membrane bioreactor (SMBR) fed synthetic wastewater contaminated by BPA
# Excerpt: According to another embodiment, a submerged membrane bioreactor system (SMBR) operated at the laboratory scale is represented in the diagram of FIG. 1. The pilot unit is comprised of ZEEWEED® (ZW-1) hollow-fibre membranes of 0.04 μm rated pore diameter and 0.047 m^2 total filtering surface area, assembled vertically. The membrane unit is provided by Zenon Environmental & Co (Oakville, ON, Canada). ZW-1 membrane, whose module contains 80 fibres of 20 cm length, may be either operated in closed loop or in continuous mode of operation, through a stirred 6 L tank of 19.1 cm water high. Filtration may be achieved by drawing water through the membrane under a slight vacuum generated by a peristaltic pump (11) and measured by a manometer (10) located just after the membrane on the aspiration line. Air may be supplied through an extended aeration tube located inside the membrane module and also used to attach it vertically. The filtration of the effluent may be carried out intermittently (5 min of filtration followed by 30 s of pause) but air should be continuously injected in the SMBR system. An oxygen probe (5) may be connected to an oxymeter and installed in the bioreactor tank to measure dissolved oxygen concentration. The air flow-rate may be measured using a flow-meter (17). pH and temperature can also be measured during the experiments by using pH (8) and temperature (9) probes installed in the bioreactor tank.
# According to some embodiments of the present invention, the SMBR system may be seeded by activated sludge collected from any suitable municipal wastewater treatment plant. The first step consists in developing the biomass by using a synthetic wastewater of a known composition carried out according known techniques. For example, the initial biomass may be developed using glucose as an organic substrate (400-2000 mg/L of COD), although any other suitable sources of carbon may be employed as organic substrates, for example sodium acetate or peptone. The biomass is developed over a period of time suitable to obtain a sufficiently concentrated biomass. […]
# According to an embodiment, the biomass may be acclimatized in oxidizing the bisphenol compound over of period of time sufficient to obtain a biomass capable of oxidizing said bisphenol compound. […] It is worth noting that, during both successive stages (biomass development and biomass acclimatization), the performance of the SMBR was evaluated by the measurements of COD. […]
# During the experimental work, samples are taken for different analyses. […] BPA is also analyzed using liquid chromatography mass spectrometer (LC-MS/MS) after extraction and purification on a solid phase. […]
smiles,measurement,setting,value
"CC(C)(c1ccc(O)cc1)c1ccc(O)cc1 [BPA, 2,2-Bis(4-hydroxyphenyl)propane]",BPA removed by physical sorption,[1],69%
same,Equilibrium adsorption time,"[2]; Chen et al., submerged membrane bioreactor process",30 min
same,Freundlich coefficient log Kf,[2]; Clara et al.,−0.614
same,BPA adsorption equilibrium time,"[2]; Clara et al., conventional activated sludge reactor",2 h
same,Concentration of BPA with adverse effects in aquatic ecosystems,[3],below 1.0 μg/L
same,BPA concentration at the entry of the SMBR from which foam is observed in the mixed liquor (perturbation in the bacterial activity),"[4]; 14 g VSS/L, HRT 6 h",≥ 25 mg/L
same,Volumetric loading at which BPA became toxic for the bacterial activity,"[4]; SMBR, around 5.0 mg/L BPA",21.6 g BPA/m^3/d
same,"Limit of toxicity, organic loading","[4]; SMBR, at 25 mg BPA/L",7.71 g BPA/kg VSS/d
same,"Limit of toxicity, volumetric loading","[4]; SMBR, at 25 mg BPA/L",about 108 g BPA/m^3/d
